Source: patent US10154988B2, “Methods and compositions for treating schizophrenia” (The Johns Hopkins University, priority 2012, dated 2018)
Read-outs that look alike come from different tables or passages of the source.

Assays:
[1] = cited from earlier work
[2] = levetiracetam blood plasma levels in aMCI patients; assay type: in vivo; details: human
Text: Visit 1: At the end of the first drug/placebo period 2 weeks after the Baseline Visit, the medical, neurological and psychiatric evaluations and cognitive testing are repeated. The subject is also clinically evaluated for suicidal ideation. Blood is drawn again to repeat the standard tests and to determine whether there are any changes related to drug treatment; the subject's blood levetiracetam level is also obtained. All medication that is dispensed at the Baseline Visit (drug or placebo) is collected and subject compliance with the medication regimen is assessed. The first fMRI session (with cognitive tests) is conducted on the same day, either immediately before or immediately after the clinical assessment. Subjects discontinue first period treatment at this visit.
Visit 2: At approximately 2 weeks after the Washout Visit (i.e., 2 weeks after starting the second treatment period), the medical, neurological and psychiatric evaluations and the cognitive testing are repeated. The subject is clinically evaluated for suicidal ideation. Blood is drawn again to repeat the standard tests and to determine whether there are any changes related to drug treatment; the subject's blood levetiracetam level is also obtained. All medication that is dispensed at the Washout Visit is collected and subject compliance with the medication regimen is assessed. The second fMRI session (with cognitive tests) is repeated on the same day, either immediately before or immediately after the clinical assessment.
Visit 2: At approximately 2 weeks after the Washout Visit (i.e., 2 weeks after starting the second treatment period), the medical, neurological and psychiatric evaluations and the cognitive testing are repeated. The subject is clinically evaluated for suicidal ideation. […] All medication being dispensed at the Washout Visit is collected and subject compliance with the medication regimen is assessed. […]
Human – in the human studies described in Examples 3 and 4, a subject's levetiracetam blood plasma level is assessed at each visit. […]

aMCI subjects = assay: neuropsychological tests outside the scanner (Buschke, Benton, Verbal Paired Associates); assay type: in vivo, human; details: 125 mg twice a day for two weeks
Text: All participants undergo neuropsychological evaluation at the time of assessment for treatment efficacy (Visits 1 and 2), as well as at the Baseline Visit. The evaluation occurs outside of the scanner and includes the Buschke Selective Reminding Test (Buschke and Fuld, 1974) and the Verbal Paired Associates subtest, the Logical Memory subtest, the Visual Reproduction subtest of the Wechsler Memory Scale-Revised (WMS-R) (Wechsler, 1997), and the Benton Visual Retention Test, as these tasks are particularly sensitive to medial temporal lobe function and early memory problems (Marquis et al., 2002 and Masur et al., 1994). Additionally, subjects are asked to complete tests of more general cognitive function such as tests to assess general mental status, executive function, attention and general naming ability. All neuropsychological tests are administered by a trained research assistant during a 60-minute session. As the three neuropsychological assessments in this study occur within a time period of 8 weeks, different versions of the neuropsychological tests are used to minimize test specific practice effects. Breaks are provided to the subject as needed.

CC[C@@H](C(N)=O)N1CCCC1=O [levetiracetam, (2S)-2-(2-oxopyrrolidin-1-yl) butanamide]
plasma half-life expected in elderly ([1]; elderly, decreased renal function): 9 to 10 h
time of peak plasma concentrations ([1]; following oral administration): about 1 hour
plasma half-life ([1]; humans): approximately 7±1 hour
time to steady state ([1]; multiple twice-daily dosing): 2 days
absorption after oral administration ([1]; oral): rapidly and almost completely absorbed
effect of food on bioavailability ([1]; oral): not affected by food
concentration at 2 weeks ([2]; 62.5 mg BID cohort (125 mg/day), SEM±0.288, read-out: mean levetiracetam blood plasma level): 2880 ng/mL
concentration at 2 weeks ([2]; 125 mg BID cohort (250 mg/day), SEM±0.53, read-out: mean levetiracetam blood plasma level): 4400 ng/mL
concentration at 2 weeks ([2]; 250 mg BID cohort (500 mg/day), SEM±0.92, read-out: mean levetiracetam blood plasma level): 7900 ng/mL
performance in Benton Visual Retention Test (aMCI subjects): fails to rescue performance
performance in Buschke Selective Reminding Test—Delayed Recall (aMCI subjects): fails to rescue performance
performance in Verbal Paired Associates Test—Delayed Recall (aMCI subjects): fails to rescue performance
performance in Verbal Paired Associates Test—Recognition (aMCI subjects): fails to rescue performance
